Assay results taken from publication PMC8096218, “Global RNA profiles show target selectivity and physiological effects of peptide-delivered antisense antibiotics” (Nucleic Acids Research, 2021).

Tests used:
fabF mRNA = assay: RNA-seq differential expression, second gene of the dicistron; type: cell-based, Salmonella enterica serovar Typhimurium; settings: edgeR, versus water; 15 min; 5 μM KFF-/RXR-constructs, 10 μM Tat-constructs; triplicates
Procedure: Bacterial overnight cultures were diluted 1:100 in fresh MHB and grown to OD600 0.5. The obtained cultures were diluted to ∼10^6 cfu/ml in non-cation-adjusted MHB. Afterward, the bacterial solution was transferred into low-binding 5 ml tubes (LABsolute) along with the 20× PNA, peptide or PPNA solution. The final concentrations were 5 μM for KFF- and RXR-PNAs, and 10 μM for Tat-PNAs. Equimolar concentrations were used for the respective peptide control conditions. As a negative control, cells were treated with the respective volume of sterile nuclease-free water, which was used as solvent for the test compounds. […]
DNase treatment, cDNA library preparation and sequencing was conducted at Vertis (Munich, Germany). […] The cDNA was purified using the Agencourt AMPure XP kit (Beckman Coulter Genomics) and was analyzed by capillary electrophoresis. […] The cDNA pool was sequenced on an Illumina NextSeq 500 system using 75 bp read length.
Reads from the RNA-Seq experiments were trimmed, filtered and mapped against the S. enterica subsp. enterica serovar Typhimurium SL1344 reference genome and the three plasmids pSLT_SL1344, pCol1B9_SL1344 (other name is p2), and pRSF1010_SL1344 ([19]). […]
All downstream analysis was performed using packages from the R/Bioconductor project. The raw read counts were imported and analyzed with edgeR (v3.30.0). […]

acpP mRNA = assay: Northern blot of acpP transcript levels after PNA treatment; type: cell-based, Salmonella enterica serovar Typhimurium; settings: 5 μM, 5, 10 or 15 min, 10^6 cfu/ml; two biological replicates
Procedure: For northern blotting, equal RNA amounts were used for gel electrophoresis (10 μg in Figure 4B; 100–150 ng in Figure 4E) and subsequent transfer to Hybond+ membranes (GE Healthcare Life Sciences). After crosslinking (0,12 J/cm^2), membranes were blocked using ROTI®Hybri-Quick (Roth) and incubated with RNA-specific digoxigenin (DIG; Roche)- or radioactively-labeled (5′ ^32P-labeling ([28])) oligonucleotides. In vitro transcription (MEGAscript T7 polymerase, Ambion), DIG-labeling of probes and northern blot detection was performed according to the manufacturer's instructions. Sequences of all the oligonucleotides (purchased from Eurofins Genomics or Sigma) employed for northern blot probe generation or RT-qPCR are listed in Supplementary Table S2. Signals were visualized on a phosphorimager (Typhoon FLA 7000, GE Healthcare) for radioactive probes, or using an ImageQuant (LAS 4000, GE Healthcare) for DIG-labeled probes.
Bacterial overnight cultures were diluted 1:100 in fresh MHB and grown to OD600 0.5. […]
Figure 4. […] In brief, 10^9 cfu were pelleted for the isolation of RNA, which was subsequently analyzed using (A) a denaturing polyacrylamide gel (1 μg/lane) and (B) northern blotting (10 μg/lane). […] (B) Transcript levels of two sRNAs, SroC and SdhX (SdhX1, SdhX2), and the loading control 5S were detected using sequence specific radioactive-labeled probes. […]

For “KFFKFFKFFK [KFF-acpP, KFF peptide conjugated to 10-mer antisense PNA against the translational start site of acpP]”, the “logFC fabF” value (fabF mRNA) was -1.1555 and the “acpP mRNA levels (northern blot)” value (acpP mRNA) was “rapid decrease of acpP mRNA levels from 5 min post treatment onwards”.
